Experimental data from patent US11524966B1 (Valo Early Discovery, Inc., priority 2017, dated 2022).

Biological target: T1, USP28 (USP28-5(1-1077)-TEV-6*His; LifeSensors) (Homo sapiens, UniProt Q96RU2)
T1 construct: construct USP28 (USP28-5(1-1077)-TEV-6*His; LifeSensors); TEV cleavage site (C); 6xHis (C); purchased LifeSensors
T1 sequence (Q96RU2 1-1077): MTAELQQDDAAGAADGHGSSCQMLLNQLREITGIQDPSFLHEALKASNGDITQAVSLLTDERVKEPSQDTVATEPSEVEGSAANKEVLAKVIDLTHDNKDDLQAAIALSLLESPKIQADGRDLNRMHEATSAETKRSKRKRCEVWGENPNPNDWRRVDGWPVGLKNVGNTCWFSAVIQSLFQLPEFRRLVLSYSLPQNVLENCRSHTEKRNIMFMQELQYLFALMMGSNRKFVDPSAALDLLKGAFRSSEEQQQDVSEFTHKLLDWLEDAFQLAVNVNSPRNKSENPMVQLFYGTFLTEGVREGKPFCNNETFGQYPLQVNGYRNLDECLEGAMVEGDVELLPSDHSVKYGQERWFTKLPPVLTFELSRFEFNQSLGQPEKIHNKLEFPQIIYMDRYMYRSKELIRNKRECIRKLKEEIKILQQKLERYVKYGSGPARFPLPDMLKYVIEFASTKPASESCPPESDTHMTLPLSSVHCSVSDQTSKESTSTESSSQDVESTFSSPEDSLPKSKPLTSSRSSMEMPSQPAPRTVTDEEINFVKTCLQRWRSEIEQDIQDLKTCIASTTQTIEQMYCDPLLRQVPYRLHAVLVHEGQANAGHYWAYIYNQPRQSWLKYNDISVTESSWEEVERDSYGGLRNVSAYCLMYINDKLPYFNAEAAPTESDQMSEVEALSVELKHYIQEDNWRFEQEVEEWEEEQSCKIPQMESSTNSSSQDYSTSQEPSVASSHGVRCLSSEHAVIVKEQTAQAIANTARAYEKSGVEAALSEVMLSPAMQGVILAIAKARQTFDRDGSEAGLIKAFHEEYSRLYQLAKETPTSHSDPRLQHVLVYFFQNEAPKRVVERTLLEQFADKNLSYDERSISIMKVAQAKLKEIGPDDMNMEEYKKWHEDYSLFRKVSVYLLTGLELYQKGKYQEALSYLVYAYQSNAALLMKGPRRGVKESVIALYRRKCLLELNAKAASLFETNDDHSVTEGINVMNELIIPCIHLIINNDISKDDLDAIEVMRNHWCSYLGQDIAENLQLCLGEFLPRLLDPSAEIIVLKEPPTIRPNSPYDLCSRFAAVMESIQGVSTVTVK
Assay: Ubiquitin-Rhodamine 110 Assay for USP28 Activity, Example A-1(b)
Format: biochemical
Conditions: Ub-Rh110 assay, Example A-1(b)
Method in brief: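 Single-point screening used 10 μM compound with 90 min room-temperature incubation; follow-up dose-responses (25 μM top, 3-fold) used 75 pM USP28 1-1077 construct, 30 min compound preincubation, 25 nM Ub-Rh110, 20 min reaction, citric acid quench. Rh110 fluorescence normalised to no-enzyme and DMSO controls; IC50 from 4-parameter logistic fit.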

## Cc1cc(C)c2c(N)c(C(=O)N[C@H]3COc4cc(N5CC6CNCC(C5)O6)ccc4C3)sc2n1 [Example 2-20, N-((3R)-7-(9-oxa-3,7-diazabicyclo[3.3.1]nonan-3-yl)chroman-3-yl)-3-amino-4,6-dimethylthieno[2,3-b]pyridine-2-carboxamide]
  USP28 A-1(b) IC50 range: +++ (0.05-0.2 μM)

## Cc1cnc2c(N)c(C(=O)N[C@H]3CCc4cc(N5CCNCC5)c(C)cc4C3)sc2n1 (single isomer, unassigned) [Example 2-34]
  USP28 A-1(b) IC50 range: ++ (0.2-2 μM)

## Cc1ccc2c(N)c(C(=O)N[C@@H]3COc4cc(N5CC6CCCC(C5)N6)ccc4C3)sc2n1 (single isomer, unassigned) [Example 1-6]
  USP28 A-1(b) IC50 range: ++ (0.2-2 μM)

## Cc1ccc2c(N)c(C(=O)N[C@H]3COc4cc(N5CCNCC56COC6)ccc4C3)sc2n1 [Example 2-10]
  USP28 A-1(b) IC50 range: +++ (0.05-0.2 μM)

## Cc1ccc2c(N)c(C(=O)N[C@H]3COc4cc(N5C6CCC5CNC6)ccc4C3)sc2n1 [Example 2-6, N-((3R)-7-(3,8-diazabicyclo[3.2.1]octan-8-yl)chroman-3-yl)-3-amino-6-methylthieno[2,3-b]pyridine-2-carboxamide]
  USP28 A-1(b) IC50 range: +++ (0.05-0.2 μM)

## COc1nc2sc(C(=O)N[C@H]3COc4cc(N5CCNCC5)ccc4C3)c(N)c2cc1F [Example 2-16, (R)-3-amino-5-fluoro-6-methoxy-N-(7-(piperazin-1-yl)chroman-3-yl)thieno[2,3-b]pyridine-2-carboxamide]
  USP28 A-1(b) IC50 range: ++ (0.2-2 μM)

## Cc1cnc2c(N)c(C(=O)N[C@@H]3CCc4c(ccc(N5CCNCC5)c4C)C3)sc2n1 (single isomer, unassigned) [Example 2-37]
  USP28 A-1(b) IC50 range: +++ (0.05-0.2 μM)

## Cc1ccc2c(N)c(C(=O)N[C@H]3COc4cc(N5CC6CCC(C5)N6)ccc4C3)sc2n1 (single isomer, unassigned) [Example 1-3]
  USP28 A-1(b) IC50 range: +++ (0.05-0.2 μM)

## Cc1nc2sc(C(=O)N[C@@H]3COc4cc(N5CCNCC5)cc(F)c4C3)c(N)c2s1 (single isomer, unassigned) [Example 1-38]
  USP28 A-1(b) IC50 range: ++ (0.2-2 μM)

## Cc1ccc2c(N)c(C(=O)N[C@H]3COc4cc(N5CC6CNCC(C5)C6(F)F)ccc4C3)sc2n1 [Example 2-1, 3-Amino-N-((3R)-7-(9,9-difluoro-3,7-diazabicyclo[3.3.1]nonan-3-yl)chroman-3-yl)-6-methylthieno[2,3-b]pyridine-2-carboxamide]
  USP28 A-1(b) IC50 range: ++++ (0.001-0.05 μM)

## CCn1ccc2cc(C(=O)N[C@H]3COc4cc(N5CC6CCC(C5)N6)ccc4C3)cnc21 (single isomer, unassigned) [Example 1-28]
  USP28 A-1(b) IC50 range: +++ (0.05-0.2 μM)

## Cc1cc(C)c2c(N)c(C(=O)N[C@H]3COc4cc(N5CC6CNCC(C5)C6(F)F)ccc4C3)sc2n1 [Example 2-19, 3-amino-N-((3R)-7-(9,9-difluoro-3,7-diazabicyclo[3.3.1]nonan-3-yl)chroman-3-yl)-4,6-dimethylthieno[2,3-b]pyridine-2-carboxamide]
  USP28 A-1(b) IC50 range: ++++ (0.001-0.05 μM)

## Cc1ccc2c(N)c(C(=O)N[C@H]3COc4c(ccc(N5CCNCC5)c4F)C3)sc2n1 [Example 1-33, (R)-3-amino-N-(8-fluoro-7-(piperazin-1-yl)chroman-3-yl)-6-methylthieno[2,3-b]pyridine-2-carboxamide]
  USP28 A-1(b) IC50 range: +++ (0.05-0.2 μM)

## Cc1nc2sc(C(=O)N[C@H]3COc4cc(N5CC6CNCC(C5)C6(F)F)ccc4C3)c(N)c2s1 [Example 2-28, 6-amino-N-((3R)-7-(9,9-difluoro-3,7-diazabicyclo[3.3.1]nonan-3-yl)chroman-3-yl)-2-methylthieno[2,3-d]thiazole-5-carboxamide]
  USP28 A-1(b) IC50 range: +++ (0.05-0.2 μM)

## Cc1ccc2c(N)c(C(=O)N[C@H]3COc4cc(N5CCNC[C@H]5C)ccc4C3)sc2n1 [Example 2-5, 3-amino-6-methyl-N-((R)-7-((R)-2-methylpiperazin-1-yl)chroman-3-yl)thieno[2,3-b]pyridine-2-carboxamide]
  USP28 A-1(b) IC50 range: ++++ (0.001-0.05 μM)

## Cc1cnc2c(N)c(C(=O)N[C@H]3CCc4c(ccc(N5CCNCC5)c4C)C3)sc2n1 (single isomer, unassigned) [Example 2-36]
  USP28 A-1(b) IC50 range: + (>2 μM)

## Cc1cc(C(F)(F)F)c2c(N)c(C(=O)N[C@H]3COc4cc(N5CC6CNCC(C5)C6(F)F)ccc4C3)sc2n1 [Example 2-22, 3-amino-N-((3R)-7-(9,9-difluoro-3,7-diazabicyclo[3.3.1]nonan-3-yl)chroman-3-yl)-6-methyl-4-(trifluoromethyl)thieno[2,3-b]pyridine-2-carboxamide]
  USP28 A-1(b) IC50 range: ++++ (0.001-0.05 μM)

## Cc1ccc2c(N)c(C(=O)N[C@@H]3COc4cc(N5CC6CCC(C5)N6)cc(F)c4C3)sc2n1 (single isomer, unassigned) [Example 1-30]
  USP28 A-1(b) IC50 range: + (>2 μM)

## Cc1ccc2c(N)c(C(=O)N[C@H]3COc4cc(N5CC6CC(C5)N6)cc(F)c4C3)sc2n1 (single isomer, unassigned) [Example 1-42]
  USP28 A-1(b) IC50 range: + (>2 μM)

## Cc1cc(C)c2c(N)c(C(=O)N[C@H]3COc4cc(N5CCNCC5)ccc4C3)sc2n1 [Example 2-17, (R)-3-amino-4,6-dimethyl-N-(7-(piperazin-1-yl)chroman-3-yl)thieno[2,3-b]pyridine-2-carboxamide]
  USP28 A-1(b) IC50 range: +++ (0.05-0.2 μM)

## Cc1nc2sc(C(=O)N[C@H]3COc4cc(N5CCNCC5)ccc4C3)c(N)c2s1 [Example 1-25, (R)-6-amino-2-methyl-N-(7-(piperazin-1-yl)chroman-3-yl)thieno[2,3-d]thiazole-5-carboxamide]
  USP28 A-1(b) IC50 range: ++ (0.2-2 μM)

## CCn1ccc2cc(C(=O)N[C@H]3COc4cc(N5CC6CCCC(C5)N6)ccc4C3)nnc21 [Example 2-29, N-((3R)-7-(3,9-diazabicyclo[3.3.1]nonan-3-yl)chroman-3-yl)-7-ethyl-7H-pyrrolo[2,3-c]pyridazine-3-carboxamide]
  USP28 A-1(b) IC50 range: ++ (0.2-2 μM)

## Cc1cnc2c(N)c(C(=O)N[C@H]3COc4cc(N5CC6CC(C5)N6)ccc4C3)sc2n1 [Example 2-11, N-((3R)-7-(3,6-diazabicyclo[3.1.1]heptan-3-yl)chroman-3-yl)-7-amino-3-methylthieno[2,3-b]pyrazine-6-carboxamide]
  USP28 A-1(b) IC50 range: ++ (0.2-2 μM)

## Nc1c(C(=O)N[C@H]2COc3cc(N4CC5CCC(C4)N5)ccc3C2)sc2ncc(F)cc12 (single isomer, unassigned) [Example 1-17]
  USP28 A-1(b) IC50 range: ++ (0.2-2 μM)

## Cc1ccc2c(N)c(C(=O)N[C@@H]3COc4cc(N5CCNCC5)c(F)cc4C3)sc2n1 [Example 1-36, (S)-3-amino-N-(6-fluoro-7-(piperazin-1-yl)chroman-3-yl)-6-methylthieno[2,3-b]pyridine-2-carboxamide]
  USP28 A-1(b) IC50 range: + (>2 μM)

## Cc1nc2sc(C(=O)N[C@@H]3COc4cc(N5CCNCC5)ccc4C3)c(N)c2cc1F (single isomer, unassigned) [Example 1-16]
  USP28 A-1(b) IC50 range: + (>2 μM)

## Cc1ccc2c(N)c(C(=O)N[C@H]3COc4cc(N5CCN[C@H](C)[C@@H]5C)ccc4C3)sc2n1 (single isomer, unassigned) [Example 1-9]
  USP28 A-1(b) IC50 range: ++ (0.2-2 μM)

## Cc1nc2sc(C(=O)N[C@H]3COc4cc(N5CC6CCCC(C5)N6)ccc4C3)c(N)c2s1 [Example 2-27]
  USP28 A-1(b) IC50 range: ++ (0.2-2 μM)
